# Laboratory results taken from a melting point compilation (Tetko et al.; mined from patent text by program, amines drawn as free bases though some values may be those of a salt).
row,SMILES,melting point
1,CCc1cc(C(=O)c2ccccc2Cl)c(-n2c(C)nnc2CNC(=O)c2cccc(C(=O)O)c2)s1,133 to 136 °C
2,CCOC(=O)c1c(C)nn(-c2ccccc2N)c1C,59 to 61 °C
3,COc1ccc(C(=O)N2CCCC2=O)cc1,120 °C
4,COC(=O)c1c(C)nc2ccc(Br)cc2c1NCc1ccccc1,89 °C
5,O=c1c2c(c1=O)Nc1c(Cl)cc(C(F)(F)F)cc1N2,335 to 337 °C
6,Brc1ccc2c(c1)C1(OCCCO1)C1=NCCCN12,145 to 149 °C
7,O=C(O)c1ccc2c(c1)nc(-c1ccc(OCc3cc(Cl)ccc3-c3ccc(Cl)cc3)cc1)n2C1CCCCC1,243 to 244 °C
8,CCOC(=O)C(C)(C)C(O)C(c1ccc(Cl)cc1)n1ccnc1 (stereo not given),120 to 124 °C
9,CCC1(CCCCN2CCN(c3cccc(Cl)c3)CC2)C(=O)Nc2ccc(Cl)cc21 (stereo not given),139 to 142 °C
10,CCNC(=O)NC(=O)Nc1ccccc1,80 to 81.5 °C
11,COC(=O)c1ccc(-c2cc(-c3ccc(C(F)(F)F)cc3)on2)cc1,183 to 184 °C
12,CCCc1nc(C(C)O)c(C(=O)OCC)[nH]1 (stereo not given),151 to 153 °C
13,CC(=O)Nc1ncc(S(=O)(=O)NC(C)(C)CO)s1,206 °C
14,CCOC1CC2(C)C(CCC3C4CCC(C(C)=O)C4(C)CC(NCCC(C)C)C32)CC1O (stereo not given),110 to 112 °C
15,N#Cc1cnc2ccsc2c1Oc1ccc(Cl)cc1Cl,158 to 160 °C
16,O=C(O)c1ccc(-c2ccnnc2)cc1,> 330 °C
17,N#Cc1ccc(Nn2cnnc2)cc1-c1ccoc1,199 to 200 °C
18,CNC(=NC#N)NCCSCc1csc(NC(=S)NCC(F)(F)F)n1,157 to 158 °C
19,Cc1nc2ccccc2nc1C(=O)OCCO,146 to 148 °C
20,CCc1noc(C)c1-c1[nH]c2ccccc2c1C(O)CCN(C)C (stereo not given),166 to 169 °C
21,COc1cc2c(cc1CCCCO)oc1cc(-c3ccccc3Cl)c3c(c12)C(=O)NC3=O,158 to 162 °C
22,O=C1CCCCc2cc(OCC3CCCCC3)ccc21,86 to 88 °C
23,Cc1cc(-c2cccc(NC(=O)N[C@@H]3c4cc(C#N)ccc4OC(C)(C)[C@H]3O)c2)n(C)n1,142 to 152 °C
24,Cc1cc(Cl)cc(C(=O)NC2(C)CC2)c1NC(=O)c1cc(Br)nn1-c1ncccc1Cl,> 250 °C

row,SMILES,melting point
1,C#CCCCCOc1cc(/C=C/C(=O)Nc2ccccc2C(=O)O)ccc1OC,135 to 137 °C
2,CCC(O)c1ccc(Cl)c2nc3n(c12)CCCN3c1ccc(Cl)cc1Cl (stereo not given),233 to 235 °C
3,O=C(Nc1ccc(-n2nc(C(F)(F)F)cc2C(F)(F)F)cc1)c1cccc(Br)c1,158 to 160 °C
4,CCCN(C)CCCN1CCN(c2cc(-c3ccnc(NCc4cccc(OC)c4)n3)cc3ccc(OC)cc23)CC1,156 to 160 °C
5,C#CCn1cc(CO)cc1C(=O)OC,77 °C
6,Cc1cc(-c2cc(C(F)(F)F)nn2-c2ccc(S(C)(=O)=O)cc2)ccc1-c1cscn1,140 to 142 °C
7,COC(=O)N(C)CCc1ccc(N)c(CS(=O)(=O)c2ccccc2)c1,95 to 96 °C
8,Cn1c(=O)c2c(ncn2CCCN2CCC(NC(=O)c3ccc(N)cc3)CC2)n(C)c1=O,203 to 205 °C
9,Cc1c(Br)c2ccccn2c1C(=O)c1cc(Cl)c(O)c(Cl)c1,240 °C
10,O=C(CNc1c(C(=O)O)[nH]c2cc(Cl)cc(Cl)c12)c1ccc(Cl)cc1,279 to 283 °C
11,O=c1cc(OCc2ccccc2)cc(CC(O)c2ccc(OCc3ccccc3)c(OCc3ccccc3)c2)o1 (stereo not given),109 to 110 °C
12,NS(=O)(=O)c1ccc(-c2ccccc2-c2ccc(C(F)(F)F)cc2)cc1,188 °C
13,COC(=O)C12COc3cc(F)ccc3N1N=C(C(=O)Nc1ccc(C(F)(F)F)cc1)C2 (stereo not given),178 to 181 °C
14,COc1ccc(CC(C)CC(C(=O)C(CC(C)Cc2ccc(OC)c(OC)c2)N2C(=O)c3ccccc3C2=O)N2C(=O)c3ccccc3C2=O)cc1OC (stereo not given),128 °C
15,CC(C)(C)C(=O)Oc1cc2c(c3ccccc13)Nc1ccccc1S2,142 °C
16,N#Cc1ccc(-c2oncc2CCCO)cc1,82 to 83 °C
17,Cc1nc2cc(-c3ccco3)ccc2o1,60 °C
18,COc1cccc(Oc2cccc(-c3cccc(C(=O)NCCC#N)c3)n2)c1,85 to 86 °C
19,Cc1oc(C(C)(C)C)nc1CCl,41 to 44 °C
20,CC1(C)Oc2c(cc(Cl)c3oc(C(=O)O)cc(=O)c23)-c2ccc([N+](=O)[O-])cc21,278 to 279 °C
21,CSc1nc(=O)cc(N)n1-c1ccc(Cl)cc1,180 to 182 °C
22,CC(C)c1ccc([N+](=O)[O-])c(C(C)C)c1NC(=O)CN1CCN(CCSc2nc3cccc(C(F)(F)F)c3o2)CC1,115 to 117 °C
23,COc1cc2c(cc1OC)C(NC=O)C(c1ccc3c(c1)OCO3)CC2 (stereo not given),150 to 190 °C
24,CC(=O)c1cc(NS(C)(=O)=O)c(Sc2ccc(F)cc2F)cc1[N+](=O)[O-],169 to 170 °C

row,SMILES,melting point
1,COCCCNC(=O)OCCCc1ccc(OCCOC)cc1Oc1ncc(C(F)(F)F)cc1Cl,83.5 to 85 °C
2,COC(=O)C(Cc1ccc(OCCn2ccc3ccc(C(=O)C4CC4)nc32)cc1)OCC(F)(F)F (stereo not given),123 °C
3,COc1cc2cc3c4c(cccc4c2cc1OC)C(=O)OC3=O,> 324 °C
4,CC(=O)OC1CSC(Oc2cncc(-c3ccc(C#N)nc3)c2)C(OC(C)=O)C1OC(C)=O (stereo not given),142 to 151 °C
5,Cn1c(COc2cccc([N+](=O)[O-])c2)nc2ccccc21,183 to 185 °C
6,CCOC(=O)c1cnn(-c2ccc(F)cc2)c1Cl,70 to 72 °C
7,Cc1nc2c(s1)-c1nc(Nc3ccc(N4CCOCC4)cc3)ncc1CC2,236 to 237 °C
8,N#CNc1cc(F)ccc1-c1ccccc1,68 to 70 °C
9,C[C@H]1C(=O)NC2CCC(=O)N21 (stereo not given in full),84 to 86 °C
10,CS(=O)(=O)Oc1ccccc1CC(=O)O,110 °C
11,CC(C)Cn1c(=O)n(C)c(=O)c2c(SCCN(C)C)n(Cc3cccc4ccccc34)cc21,140 to 144 °C
12,C=CC(C)c1cc(C)c2c(c1O)C(N(C)C(=O)c1cccnc1)C1CCCCC21 (stereo not given),183 to 184 °C
13,O=Cc1ccc2cc(O)ccc2c1,154 to 156 °C
14,CN1NCc2c(Cl)ncnc21,97 to 99 °C
15,CC(=O)N1C(=O)NC2(C1=O)C(=O)N(Cc1ccc(Cl)c(Cl)c1)c1ccccc12 (stereo not given),185 to 187 °C
16,CC(C)(C)OC(=O)Nc1c(C#CBr)c(C#N)nn1-c1c(Cl)cc(C(F)(F)F)cc1Cl,168 to 170 °C
17,CN(Cc1ccc(CCn2cnc3cc(-c4ccc(Cl)cc4)sc3c2=O)cc1)C(=O)C1CC1,178 °C
18,Nc1ccc(OC2=C(Oc3ccc(N)cc3)C(F)(F)C(F)(F)C2(F)F)cc1,78 to 83 °C
19,FC(F)(F)c1ccc2[nH]c(-c3csc(Cc4c(Cl)cccc4Cl)n3)nc2c1,187 to 189 °C
20,CCOC(=O)c1c(C2CC2)nn(CC)c1Cc1ccc(-c2ccccc2S(N)(=O)=O)cc1,54 to 58 °C
21,CC(CN1CCCC1)N1c2ccccc2Sc2ccc(C3=NC4CCCCC4N3)cc21 (racemic),109 °C
22,CN(C)CCCn1c2c(c3ccccc31)CC(O)CC2 (stereo not given),174 to 176 °C
